Entries after “also recorded” stand apart in the source; their conditions may differ. Where a SMILES comes first, the peptide text is derived from it. Where no end group is shown, it is not given here. [ ]: non-standard residue; d: D form.
Assays:
[1] = biological target: T1, His-MUC1-CD (Homo sapiens, UniProt P15941); test: BIAcore binding to immobilized His-MUC1-CD; settings: data not shown
T1 sequence (P15941 1184-1255): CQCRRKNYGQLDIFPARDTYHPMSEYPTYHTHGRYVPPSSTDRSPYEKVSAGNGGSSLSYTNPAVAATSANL
Description: FIGS. 1A-D. MUC1/CQC peptide blocks MUC1 oligomerization. (FIG. 1A) Schematic representation of the MUC1-C subunit and the 72-amino acid sequence of MUC1-CD (SEQ ID NO: 1) are shown. The N-terminal 15 amino acids (shaded sequence; SEQ ID NO: 3) MUC1/CQC (SEQ ID NO: 63) and mutated MUC1/AQA (SEQ ID NO: 60) peptides were synthesized with the poly-dArg transduction domain. (FIG. 1B) His-MUC1-CD (1.4 mg/ml) was immobilized on a sensor chip in a BIAcore. MUC1/CQC was injected over the chip at 10 μM. Raw binding data were analyzed by BIAevaluation software version 3.0 and fit to a 1:1 Languir binding model. (FIG. 1C) Purified His-MUC1-CD (1.5 mg/ml) was incubated with PBS, 200 μM MUC1/CQC or 200 μM MUC1/AQA for 1 h at room temperature. The proteins were separated in a non-reducing SDS-polyacrylamide gel and analyzed by immunoblotting with anti-MUC1-C. (FIG. 1D) 293 cells were transiently transfected to express an empty vector or GFP-MUC1-CD and Flag-MUC1-CD. At 48 h after transfection, the cells were treated with 5 μM MUC1/CQC or MUC1/AQA for 3 d. The cells were then harvested for immunoblotting with anti-MUC1-C (left panel). […]
The MUC1 cytoplasmic domain (MUC1-CD) contains a CQC motif that is necessary for the formation of oligomers and nuclear localization (Leng et al., 2007). […] Purified His-tagged MUC1-CD forms oligomers as detected by electrophoresis in polyacrylamide gels (FIG. 1C). […]

[2] = system: MCF-10A non-transformed mammary epithelial cell line; test: Cell cycle distribution and viable cell number, MCF-10A; type: cell-based, human; settings: 5 μM
Description: FIGS. 4A-E. Selectivity of MUC1/CQC for MUC1 expressing breast cancer cells. (FIG. 4A) ZR-75-1 cells were stably infected with an empty lentivirus (vector) or one expressing a MUC1 siRNA. Lysates for the infected cells were immunoblotted with the indicated antibodies. (FIG. 4B) ZR-75-1/vector cells were left untreated (diamonds), and ZR-75-1/vector (squares) and ZR-75-1/MUC1siRNA (triangles) cells were treated with 5 μM MUC1/CQC peptide for the indicated times. Viable cell number was determined by trypan blue exclusion. (FIG. 4C) 293 cells were left untreated (diamonds), and treated with 5 μM MUC1/CQC (squares) or MUC1/AQA (triangles) for the indicated times. Viable cell number was determined by trypan blue exclusion. (FIG. 4D) MCF-10A cells were left untreated (left panel), and treated with 5 μM MUC1/CQC (middle panel) or MUC1/AQA (right panel). At 3 d, cells were analyzed for cell cycle distribution. […] Viable cell number was determined by trypan blue exclusion.
Human breast cancer ZR-75-1, ZR-75-1/vector, ZR-75-1/MUC1siRNA (Ren et al., 2004) cell lines were grown in RPMI1640 medium supplemented with 10% heat-inactivated fetal bovine serum (HI-FBS), 100 U/ml penicillin, and 100 μg/ml streptomycin (Invitrogen) in a humidified incubator at 37° C. and 5% CO2. […] Viability was determined by trypan blue exclusion. […]

Row | Compound | binding to His-MUC1-CD [1] | effect on growth [2] | effect on cell cycle distribution ([2]; 3 d)
1 | MUC1/AQA: control peptide in which the CQC motif was altered to AQA, with poly-dArg transduction domain; SEQ ID NO: 60 ([dR][dR][dR][dR][dR][dR][dR][dR][dR]AQARRKNYGQLDIFP) [reference compound] | no apparent binding |  | 
2 | CC[C@H](C)[C@H](NC(=O)[C@H](CC(=O)O)NC(=O)[C@H](CC(C)C)NC(=O)[C@H](CCC(N)=O)NC(=O)CNC(=O)[C@H](Cc1ccc(O)cc1)NC(=O)[C@H](CC(N)=O)NC(=O)[C@H](CCCCN)NC(=O)[C@H](CCCNC(=N)N)NC(=O)[C@H](CCCNC(=N)N)NC(=O)[C@H](CS)NC(=O)[C@H](CCC(N)=O)NC(=O)[C@H](CS)NC(=O)[C@@H](CCCNC(=N)N)NC(=O)[C@@H](CCCNC(=N)N)NC(=O)[C@@H](CCCNC(=N)N)NC(=O)[C@@H](CCCNC(=N)N)NC(=O)[C@@H](CCCNC(=N)N)NC(=O)[C@@H](CCCNC(=N)N)NC(=O)[C@@H](CCCNC(=N)N)NC(=O)[C@@H](CCCNC(=N)N)NC(=O)[C@H](N)CCCNC(=N)N)C(=O)N[C@@H](Cc1ccccc1)C(=O)N1CCC[C@H]1C(=O)O [MUC1/CQC] (H-[dR][dR][dR][dR][dR][dR][dR][dR][dR]CQCRRKNYGQLDIFP-OH; N-terminus and C-terminus assumed) |  | no effect; also recorded: little effect | no effect

From patent publication US9546201B2, “MUC-1 cytoplasmic domain peptides as inhibitors of cancer” (DANA-FARBER CANCER INSTITUTE, INC., priority 2008, dated 2017)
